# Biological target: IDO1 (Homo sapiens, UniProt P14902)
# Experiment: IDO1 cellular activity using HEK293 cells transfected with IDO1 expression vector
# Type: cell-based
# Set-up: host or cells: HEK293 cells, transient transfection with Lipofectamine 2000
# Settings: 24 h compound incubation, read-out: Inhibitory Activity (IC50)
# Procedure: HEK293 cells were seeded at a density of 30000 cells/well in 100 μl of a culture medium (DMEM supplemented with 10% FBS, penicillin 100 U/ml, and streptomycin 100 μg/ml) in a tissue culture-treated 96 well plate. The cells were cultured in a 5% carbon dioxide incubator for 24 hours, transfected with the IDO1 expression vector (component A in IDO1 cell-based assay kit, catalog #72031, BPS Bioscience) using Lipofectamine 2000 (Life Technologies, #11668027), and then cultured for 24 hours in a 5% carbon dioxide incubator to express the IDO protein.
# The activities were measured using a IDO1 cell-based assay kit (catalog #72031, BPS Bioscience). Specifically, an assay medium was prepared by diluting IDO1 assay medium substrate 1 and IDO1 assay medium supplement 2 in a culture medium at a ratio of 1:100, respectively. The test compounds were diluted to the predetermined concentrations in the fresh assay medium. After removing the culture medium using a multi-pipet, 200 μl of each assay medium containing the test material was added into respective well, followed by incubating in a 5% carbon dioxide incubator for 24 hours. The next day, 140 μl of culture medium from each well was transferred to a new 96-well plate. 10 μl of 6.1N trichloroacetic acid was added into each well, which was then cultured in a 50° C. incubator for 30 minutes. The plate was centrifuged at 2500 rpm for 10 minutes to settle any sediment. A detection reagent solution was prepared by diluting the detection reagent (component D in IDO1 cell-based assay kit, catalog #72031 BPS Bioscience) 50-fold in acetic acid. 100 μl of the supernatant taken from the centrifuged plate was transferred to a new transparent 96-well plate and then 100 μl of the detection reagent solution was added thereto. After reacting at room temperature for 10 minutes, absorbance was measured at 480 nm wavelength. For analysis of the results, the absorbance (At) of the well containing HEK293 cells in which IDO protein was expressed without treatment of an inhibitor was 100%; and the absorbance (Ab) of the well containing HEK293 cells in which IDO protein was not expressed was 0. The % absorbance was calculated according to the following equation: % Absorbance=(A−Ab)/(At−Ab), A=absorbance of the well treated with the test compound.
# Chain of IDO1 (P14902 whole entry): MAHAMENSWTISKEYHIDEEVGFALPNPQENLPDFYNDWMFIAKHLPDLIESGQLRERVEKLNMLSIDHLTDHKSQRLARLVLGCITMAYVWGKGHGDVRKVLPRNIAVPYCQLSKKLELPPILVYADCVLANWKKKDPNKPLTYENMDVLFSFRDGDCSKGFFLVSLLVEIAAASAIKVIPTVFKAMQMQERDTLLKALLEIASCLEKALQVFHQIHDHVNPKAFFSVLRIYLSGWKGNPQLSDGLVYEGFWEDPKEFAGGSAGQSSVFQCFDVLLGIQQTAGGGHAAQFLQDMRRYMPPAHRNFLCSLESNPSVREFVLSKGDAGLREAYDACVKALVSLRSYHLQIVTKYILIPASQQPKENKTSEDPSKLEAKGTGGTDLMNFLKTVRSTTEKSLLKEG
row,IC50 [nM],SMILES
1,105,"C[C@H](C[C@H]1CC[C@@H](c2ccnc3ccc(F)cc32)CC1)Nc1nc2c(Cl)cccc2s1 [Example 35, 4-chloro-N-((R)-1-((cis)-4-(6-fluoroquinolin-4-yl)cyclohexyl)propan-2-yl)benzo[d]thiazol-2-amine]"
2,25.2,"Cc1ccc2c(N[C@H](C)C[C@H]3CC[C@H](c4ccnc5ccc(F)cc54)CC3)nc(Cl)nc2c1 [Example 57, 2-chloro-N-((R)-1-((trans)-4-(6-fluoroquinolin-4-yl)cyclohexyl)propan-2-yl)-7-methylquinazolin-4-amine]"
3,276,"C[C@H](C[C@H]1CC[C@@H](c2ccnc3ccc(F)cc32)CC1)Nc1nc(Cl)nc2c(OC(F)(F)F)cccc12 [Example 71, 2-chloro-N-((R)-1-((cis)-4-(6-fluoroquinolin-4-yl)cyclohexyl)propan-2-yl)-8-(trifluoromethoxy)quinazolin-4-amine]"
4,47.5,"COc1ccc2c(N[C@H](C)C[C@H]3CC[C@@H](c4ccnc5ccc(F)cc54)CC3)nc(Cl)nc2c1 [Example 67, 2-chloro-N-((R)-1-((cis)-4-(6-fluoroquinolin-4-yl)cyclohexyl)propan-2-yl)-7-methoxyquinazolin-4-amine]"
5,5.5,"C[C@H](C[C@H]1CC[C@@H](c2ccnc3ccc(F)cc32)CC1)Nc1nc2ccc(F)c(F)c2o1 [Example 47, 6,7-difluoro-N-((R)-1-((cis)-4-(6-fluoroquinolin-4-yl)cyclohexyl)propan-2-yl)benzo[d]oxazol-2-amine]"
6,30.8,"C[C@H](C[C@H]1CC[C@@H](c2ccnc3ccc(F)cc32)CC1)Nc1nc(Cl)nc2cc(C(F)(F)F)ccc12 [Example 66, 2-chloro-N-((R)-1-((cis)-4-(6-fluoroquinolin-4-yl)cyclohexyl)propan-2-yl)-7-(trifluoromethyl)quinazolin-4-amine]"
7,18.8,"C[C@H](C[C@H]1CC[C@@H](c2ccnc3ccc(F)cc32)CC1)Nc1nc(Cl)nc2c(F)cccc12 [Example 69, 2-chloro-8-fluoro-N-((R)-1-((cis)-4-(6-fluoroquinolin-4-yl)cyclohexyl)propan-2-yl)quinazolin-4-amine]"
8,62.3,"C[C@H](C[C@H]1CC[C@H](c2ccnc3ccc(F)cc32)CC1)Nc1nc(Cl)nc2c(F)cccc12 [Example 50, 2-chloro-8-fluoro-N-((R)-1-((trans)-4-(6-fluoroquinolin-4-yl)cyclohexyl)propan-2-yl)quinazolin-4-amine]"
9,68.6,"C[C@H](C[C@H]1CC[C@@H](c2ccnc3ccc(F)cc32)CC1)Nc1nccc2cc(Cl)ccc12 [Example 34, 6-chloro-N-((R)-1-((cis)-4-(6-fluoroquinolin-4-yl)cyclohexyl)propan-2-yl)isoquinolin-1-amine]"
10,17.2,"C[C@H](C[C@H]1CC[C@@H](c2ccnc3ccc(F)cc32)CC1)Nc1nc2ccc(Cl)c(Cl)c2o1 [Example 46, 6,7-dichloro-N-((R)-1-((cis)-4-(6-fluoroquinolin-4-yl)cyclohexyl)propan-2-yl)benzo[d]oxazol-2-amine]"
11,9.7,"C[C@H](C[C@H]1CC[C@@H](c2ccnc3ccc(F)cc32)CC1)Nc1nncc2cc(Cl)ccc12 [Example 39, 6-chloro-N-((R)-1-((cis)-4-(6-fluoroquinolin-4-yl)cyclohexyl)propan-2-yl)phthalazin-1-amine]"
12,116,"C[C@H](C[C@H]1CC[C@@H](c2ccnc3ccc(F)cc32)CC1)Nc1nccc2cc(F)ccc12 [Example 33, 6-fluoro-N-((R)-1-((cis)-4-(6-fluoroquinolin-4-yl)cyclohexyl)propan-2-yl)isoquinolin-1-amine]"
13,16.1,"Cc1ccc2c(N[C@H](C)C[C@H]3CC[C@@H](c4ccnc5ccc(F)cc54)CC3)nc(Cl)nc2c1 [Example 65, 2-chloro-N-((R)-1-((cis)-4-(6-fluoroquinolin-4-yl)cyclohexyl)propan-2-yl)-7-methylquinazolin-4-amine]"
